Measurements: patent publication US20260216294A1, “BETA 2-ADRENERGIC RECEPTOR AGONISTS FOR TREATMENT OR PREVENTION OF MUSCLE WASTING” (ATROGI AB, priority 2023, published 2026)

How the values were obtained:
L6-myotubes [1] = assay: Glucose uptake in differentiated L6-myotubes (Biological Example 2); type: cell-based; settings: read-out: Biological example 2 (GU)
Outline: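 Uptake was quantified as radioactivity in 0.2 M NaOH lysates after a 10 min pulse of 50 nM ^3H-2-deoxyglucose. The pulse followed two agonist exposures at 1×10^−5 M final (isoprenaline or test compound): 1 h 40 min, then 20 min in glucose-free medium after washing. L6 myotubes had been starved overnight in medium with 0.5% fatty-acid-free BSA.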

L6-myotubes [2] = assay: Measurement of intracellular cAMP levels in differentiated L6-myotubes (Biological Example 3); type: cell-based; settings: 0.25 h
Outline: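 Intracellular cAMP quantified by AlphaScreen after ethanol extraction and lysis of L6 myotubes. Cells were serum-starved overnight, then exposed for 15 min to compound (final 1×10^−5 M) or isoprenaline in IBMX-containing (1 mM) HBSS buffer, pH 7.4.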

[3] = glucose uptake in differentiated L6-myotubes, compound at 10 μM, activity relative to isoproterenol at 10 μM
[4] = intracellular cAMP in differentiated L6-myotubes, compound at 10 μM, activity relative to isoproterenol at 10 μM
[5] = glucose uptake, compound at 10 μM relative to isoproterenol at 10 μM
[6] = intracellular cAMP, compound at 10 μM relative to isoproterenol at 10 μM

SMILES | Emax at 10 µM (L6-myotubes [1]; [3]) [%] | Emax at 10 µM (L6-myotubes [2]; [4]) [%] | Emax at 10 µM (L6-myotubes [1]; [5]) [%] | Emax at 10 µM (L6-myotubes [2]; [6]) [%]
CC(=O)N(Cc1ccccc1)[C@H]1CC[C@H](C[C@@H]2CC[C@H]([C@H](O)c3cccc(F)c3)N2)CC1 [Compound 482, N-[(1S,4r)-4-({(2S,5R)-5-[(R)-(m-fluorophenyl) hydroxymethyl]-2-pyrrolidinyl}methyl)cyclohexyl]-N-benzylacetamide] | < 25 | < 25 |  | 
O[C@H](c1cncc(F)c1)C12CCC(C/C=C/c3ccccc3)(CC1)N2 [Compound 530, (R)-{4-[(E)-3-phenyl-2-propenyl]-7-azabicyclo[[2.2.1]]hept-1-yl}(5-fluoro-3-pyridyl)methanol] | > 75 | 25 to 50 |  | 
O[C@@H](CNCCC[C@H]1CC[C@H](OCc2ccccc2)CC1)c1cncc(F)c1 [Compound 276, (R)-1-(5-fluoro-3-pyridyl)-2-{3-[(1r,4S)-4-(benzyloxy)cyclohexyl]propylamino}-1-ethanol] | 25 to 50 | < 25 |  | 
CCC[C@@H](C)NC[C@H](O)c1ccc(F)cc1 [Compound 52, (R)-2-[(R)-1-methylbutylamino]-1-(p-fluorophenyl)-1-ethanol] |  |  | 50 to 75 | < 25
CC1(C)CCC([C@H](O)c2ccccc2F)N1 (stereo in doubt) [Compound 175, (R)-[(R)-5,5-dimethyl-2-pyrrolidinyl](o-fluorophenyl)methanol] |  |  | > 75 | 25 to 50
CC12CC(C1)[C@@H]([C@H](O)c1cccc(F)c1)N2 [Compound 188, (R)-{(S)-1-methyl-2-azabicyclo[[2.1.1]]hex-3-yl}(m-fluorophenyl)methanol] |  |  | < 25 | < 25
CCCCCCCCNCC(O)c1ccc(O)cc1 (centres unmarked) [Compound 18, 1-(p-hydroxyphenyl)-2-(octylamino)-1-ethanol] |  |  | 25 to 50 | < 25
CO[C@H]1CC[C@H](C[C@H]2CC[C@H]([C@H](O)c3cncc(F)c3)N2)CC1 [Compound 341] | > 75 | < 25 |  | 
O[C@@H](CNCCC[C@H]1CC[C@H](O)CC1)c1cccc(F)c1 [Compound 303, (R)-1-(m-fluorophenyl)-2-{3-[(1r,4S)-4-hydroxycyclohexyl]propylamino}-1-ethanol] | 50 to 75 | < 25 |  | 
CCC[C@@H]1CCCC[C@H]([C@H](O)c2cncc(F)c2)N1 [Compound 219, (R)-[(2R,7R)-7-propyl-2-azepanyl](5-fluoro-3-pyridyl)methanol] | < 25 | < 25 |  | 
CC1(C)CCC[C@H]([C@H](O)c2cccc(Cl)c2)N1 [Compound 165] |  |  | 25 to 50 | < 25
CC1(C)C[C@@H]([C@H](O)c2cccc(F)c2)N1 [Compound 200, (R)-[(S)-4,4-dimethyl-2-azetidinyl](m-fluorophenyl)methanol] | < 25 | < 25 |  | 
C[C@H]1CC[C@@H]([C@@H](O)c2ccccc2)N1 (racemic) [Compound 39, Racemic mixture of (R)-[(2R,5R)-5-methyl-2-pyrrolidinyl] phenylmethanol and (S)-[(2S,5S)-5-methyl-2-pyrrolidinyl] phenylmethanol] |  |  | 50 to 75 | < 25
CC1(C)C[C@H]([C@@H](O)c2cncc(F)c2)N1 [Compound 217] | 25 to 50 | < 25 |  | 
Cc1ncccc1[C@@H](O)CNC(C)(C)C[C@H]1CC[C@H](NS(C)(=O)=O)CC1 [Compound 435, (R)-2-{1,1-dimethyl-2-[(1r,4R)-4-(mesylamino)cyclohexyl]ethylamino}-1-(2-methyl-3-pyridyl)-1-ethanol] | 25 to 50 | < 25 |  | 
CCCCNCC(O)c1cc(Cl)c(O)c(Cl)c1 (centres unmarked) [Compound 23, 2-(butylamino)-1-(3,5-dichloro-4-hydroxyphenyl)-1-ethanol] |  |  | < 25 | < 25
CC(=O)N[C@H]1CC[C@H](C(C)(C)NC[C@H](O)c2cncc(F)c2)CC1 [Compound 346, N-[(1R,4r)-4-{1-[(R)-2-(5-fluoro-3-pyridyl)-2-hydroxyethylamino]-1-methylethyl}cyclohexyl] acetamide] | > 75 | < 25 |  | 
CO[C@H]1CC[C@H](C[C@]2(C)CC[C@H]([C@H](O)c3cccc(F)c3)N2)CC1 [Compound 364, (R)-[(2R,5S)-5-methyl-5-{[(1r,4S)-4-methoxycyclohexyl]methyl}-2-pyrrolidinyl] (m-fluorophenyl)methanol] | > 75 | 50 to 75 |  | 
CC(C)(C[C@H]1CC[C@@H](C(=O)O)CC1)NC[C@H](O)c1cncc(F)c1 [Compound 324, (1S,4s)-4-{2-[(R)-2-(5-fluoro-3-pyridyl)-2-hydroxyethylamino]-2-methylpropyl} cyclohexanecarboxylic acid] | 25 to 50 | < 25 |  | 

SMILES | Emax at 10 µM (L6-myotubes [1]; [3]) [%] | Emax at 10 µM (L6-myotubes [2]; [4]) [%] | Emax at 10 µM (L6-myotubes [1]; [5]) [%] | Emax at 10 µM (L6-myotubes [2]; [6]) [%]
CO[C@H]1CC[C@H](CNC[C@H](O)c2cccc(F)c2)CC1 [Compound 228, (R)-1-(m-fluorophenyl)-2-({[(1r,4R)-4-methoxycyclohexyl]methyl}amino)-1-ethanol] | 50 to 75 | < 25 |  | 
O[C@H](c1cccc(F)c1)C12CCC(CCCc3ccccc3)(CC1)N2 [Compound 536, (R)-(m-fluorophenyl){4-(3-phenylpropyl)-7-azabicyclo[[2.2.1]]hept-1-yl}methanol] | > 75 | 25 to 50 |  | 
CC(C)(C[C@H]1CC[C@H](N)CC1)NC[C@@H](O)c1cccc(C#N)n1 [Compound 415] | 50 to 75 | < 25 |  | 
CS(=O)(=O)N[C@H]1CC[C@H](C[C@@H]2CC[C@H]([C@@H](O)c3cccc(F)c3)N2)CC1 [Compound 505, (S)-[(2R,5S)-5-{[(1r,4S)-4-(mesylamino)cyclohexyl]methyl}-2-pyrrolidinyl](m-fluorophenyl)methanol] | < 25 | < 25 |  | 
O[C@@H](CNCCC[C@H]1CC[C@H](O)CC1)c1cncc(F)c1 [Compound 305, (R)-1-(5-fluoro-3-pyridyl)-2-{3-[(1r,4S)-4-hydroxycyclohexyl]propylamino}-1-ethanol] | 25 to 50 | < 25 |  | 
O[C@H](c1cncc(F)c1)C12CCC(COCc3ccc(OC(F)(F)F)cc3)(CC1)N2 [Compound 490] | 50 to 75 | < 25 |  | 
CC(C)(NC[C@H](O)c1cncc(F)c1)[C@H]1CC[C@@H](C(=O)O)CC1 [Compound 323, (1S,4s)-8-[(R)-2-(5-fluoro-3-pyridyl)-2-hydroxyethylamino]-7-hydroxy-p-menthan-7-one] | 25 to 50 | 50 to 75 |  | 
COc1ccc(C[C@H]2CC[C@H]([C@H](O)c3cccc(F)c3)N2)cc1 [Compound 374, (R)-{(2R,5R)-5-[(p-methoxyphenyl)methyl]-2-pyrrolidinyl}(m-fluorophenyl)methanol] | > 75 | < 25 |  | 
C[C@H]1CC[C@@H]([C@H](O)c2ccccc2)N1 (racemic) [Compound 38, Racemic mixture of (R)-[(2S,5S)-5-methyl-2-pyrrolidinyl]phenylmeth anol and (S)-[(2R,5R)-5-methyl-2-pyrrolidinyl]] phenylmethanol] |  |  | 25 to 50 | < 25
COc1ccc(CCC23CCC([C@H](O)c4cccc(F)c4)(CC2)N3)cc1 [Compound 540, (R)-(m-fluorophenyl){4-[2-(p-methoxyphenyl)ethyl]-7-azabicyclo[[2.2.1]]hept-1-yl}methanol] | 50 to 75 | 25 to 50 |  | 
CCCCNCC(O)c1ccncc1 (centres unmarked) [Compound 48, 2-(butylamino)-1-(4-pyridyl)-1-ethanol] |  |  | 25 to 50 | < 25
CCC[C@@H]1CCC[C@H]([C@@H](O)c2cccc(F)c2)N1 [Compound 60] |  |  | 25 to 50 | < 25
CC1(C)CC[C@H]([C@H](O)c2cccc(N)c2F)N1 [Compound 227, (R)-[(R)-5,5-dimethyl-2-pyrrolidinyl](3-amino-2-fluorophenyl)methanol] | > 75 | < 25 |  | 
CO[C@H]1CC[C@H](CCCNC[C@H](O)c2cccc(F)c2)CC1 [Compound 259, (R)-1-(m-fluorophenyl)-2-{3-[(1r,4S)-4-methoxycyclohexyl]propylamino}-1-ethanol] | 25 to 50 | < 25 |  | 
CC(C)(C[C@H]1CC[C@@H](NS(C)(=O)=O)CC1)NC[C@@H](O)c1cccc(C#N)n1 [Compound 424, 6-[(R)-2-{1,1-dimethyl-2-[(1s,4S)-4-(mesylamino)cyclohexyl]ethylamino}-1-hydroxyethyl]-2-pyridinecarbonitrile] | 25 to 50 | < 25 |  | 
CCC[C@H]1CCC[C@H]([C@H](O)c2cncc(F)c2)N1 [Compound 140] |  |  | < 25 | < 25
CC(C)(C)NC[C@H](O)c1ccc(F)cn1 [Compound 96, (S)-2-(tert-butylamino)-1-(5-fluoro-2-pyridyl)-1-ethanol] |  |  | 50 to 75 | < 25
CCC[C@@H]1CCC[C@H]([C@H](O)c2ccccc2F)N1 [Compound 97, (R)-[(2R,6R)-6-propyl-2-piperidyl](o-fluorophenyl)methanol] |  |  | 50 to 75 | < 25
